Values joined by “and” are separate entries in the source; they are usually repeats but may differ in a detail not shown here. Equal entries are not always repeated. Marks after values point to notes of the source that are not given here.
How the values were obtained:
[1] = Dynamic light scattering (DLS) of SSA aggregates; type: physicochemical; details: for Peak 2 (nm) / Peak 3 (nm) / Peak 1 (nm): DLS average intensity particle size distribution; for Peak 2 (nm) / Peak 3 (nm) / PDI / Peak 1 (nm): EtOH:H2O 1:19; for dH (nm): DLS intensity distribution peak maxima, H2O:EtOH 19:1, 2.78 mM, 298 K, after annealing
Source text: DLS studies: All vials used for preparing the samples were clean and dry. All solvents used were filtered to remove any particulates that may interfere with the results obtained. Samples of differing concentrations were obtained through serial dilution of a concentrated solution. All samples underwent an annealing process, in which they were heated to 313 K before being allowed to cool to 298 K to allow each sample to reach a thermodynamic minimum. […]

[2] = 1H NMR dilution study, dimerization constant (EK model, Bindfit v0.5); type: physicochemical; details: DMSO-d6/0.5% H2O, SSA anion dimerization
Source text: (§1) The self-associative properties of SSAs 1–5, and co-formulations a–j, were studied using previously published methodologies, the results of which are summarised in Table 1.[44,45] Initially, we quantified the strength of homogeneous SSA anion self-association events, to confirm the effect of the squaramide – (thio)urea substitution. […] Complimentary ^1H NMR DOSY experiments conducted in DMSO-d6 0.5% H2O solutions at 298 K confirmed the SSA anion and cation components to diffuse at different rates, providing supporting evidence towards the lack of any strong ion pairing interactions between the SSA anionic and cationic components under these experimental conditions. […] The formation of SSA anionic dimers has also been shown in the solid state through single crystal X-ray diffraction experiments.[42,43,46] […] Here the SSA anion dimer is stabilised through the formation of four intermolecular squaramide-anion hydrogen bonds. Proton NMR spectroscopy dilution study data, obtained from a DMSO-d6 0.5% H2O solution, were then fitted to both the EK (the equal K single component linear self-associative or dimerization model) and CoEK (the cooperative equal K single component linear self-associative or dimerization model) self-association models using Bindfit v0.5.[47,48] […] The dimerization constants calculated confirm that substitution of the sulfonate ion (1 and 3) for the carboxylate ion (2) increase Kdim by approximately 50-fold. However, substituting the thiourea (2) for the squaramide (5) functionality increases the Kdim by a further 70-fold. Therefore, confirming our initial hypothesis, that incorporating the squaramide residue within the SSA anion structure would increase the strength of SSA anion self-association events.

[3] = 1H NMR DOSY, hydrodynamic diameter of SSA anion; type: physicochemical; details: DMSO-d6/0.5 % H2O, 298 K
Source text: as §1

[4] = Membrane fluidity fluorescence polarization (DPH) assay; details: SSA 1.5 mM, HEPES buffer pH 7.4, 298 K, n = 3, error = SD
Source text: Next, we sought to understand the effects of 1, 2, 4 and 5 and a, c, d, f, g, j on synthetic vesicle phospholipid membrane fluidity using a fluorescence polarization (FP) assay.[52] Here, the fluorescent reporter dye 1,6-diphenyl-1,3,5-hexatriene (DPH) is incorporated into the vesicles phospholipid bilayer. As membrane fluidity is increased, the DPH reporter dye moves more freely within the phospholipid bilayer environment, resulting in a decreased FP value. However, should the membrane become more rigid, the movement of the dye is decreased and the FP value increases. As 3 is intrinsically fluorescent and overlaps with the fluorescence excitation/emission properties of the DPH, this SSA and co-formulations incorporating this compound were not included. […]
Preparation of vesicles: All lipids were purchased as powder stocks from Avanti Polar Lipids. Lipid vesicles were prepared according to standard procedures. Each phospholipid (~ 20 mg) was dissolved in chloroform: methanol 3:1 (~ 10 mL) and the solvent was removed under reduced pressure. The thin film of dried lipid was further dried in vacuo overnight. Lipid films were resuspended in the desired buffer and subjected to 10 freeze-thaw cycles in liquid nitrogen and extruded 19 times through a 200 nm polycarbonate membrane. […]
Preparation of DPH fluorescent labelled vesicles: Lipid films were resuspended in buffer (150 mM KCl, 10 mM HEPES, pH 7.4, 2 mM EGTA) and subjected to 10 freeze-thaw cycles in liquid nitrogen and extruded 20 times through a 200 nm polycarbonate membrane. For fluorescent labelling, the desired vesicles were pre-incubated with DPH (10 µM) at 60 °C for 1 hour.
Membrane fluidity assay: Black bottom 96-well plates were prepared by serially diluting desired SSA in a EtOH: H2O 1:19 solution across the plate, the appropriate DPH labelled vesicles (100 µL, 60 µM) were added to each well to give a total well volume of 200 µL. FP measurements were taken at 25 °C using a 355 nm filter for excitation and a […] for emission. The DPH labelled vesicles were set to a FP value of 100 mP. Data were acquired in endpoint mode. All experiments were repeated in triplicate to ensure experimental reproducibility.

[5] = Membrane permeability and adhesion assay (1H CPMG NMR; PF and MAF); details: SSA anion(s), 200 μM, 298 K; for MAF (membrane adhesion factor): error ±0.05 unless stated, MAF < 1 suggests adhesion; for PF (membrane permeation factor): error ±0.1 unless stated, PF > 1 suggests permeable
Source text: Finally, in line with our previous work, we moved to characterise the membrane adhesion and permeation events of 1–5 and co-formulations a–j with PE : PG 1 : 1 synthetic phospholipid vesicles.[53] This vesicle composition was prioritised for further analysis as this composition acts as a model for an AMR resistant strain of the ESKAPE pathogen P. aeruginosa,[54,55] categorised as high priority by the WHO.[33] As summarised in Table 4, membrane permeation (PF) and membrane adhesion factors (MAF) for the SSA anionic components were calculated through the use of ^1H CPMG NMR spectroscopy experiments, using vesicles produced by extrusion through a 1000 nm polycarbonate membrane.
Here the lower the MAF, the stronger the adhesion of the molecule to the surface of the phospholipid membrane. […] A PF value of 1 or above provides evidence of SSA permeation. The greater this value above 1, the greater the membrane permeation potential of a compound. […]
Membrane permeability and adhesion assay, determining membrane adhesion factors (MAF) and permeation factors (PF): Lipid vesicles of DOPE and PG, in a 1:1 ratio by weight were prepared as described in ‘preparation of vesicles’ with one alteration. Here vesicles were extruded 21 times through a 1000 nm polycarbonate membrane. NMR samples were prepared containing: SSA ( 200 µM), 95% HEPES buffer (HEPES (10 mM), NaCl (10 mM)) and 5% D 2O, and sodium trimethylsilylpropanesulfonate - DSS (1 µM). In order to calculate the PF and MAF the paramagnetic relaxation enhancement agent (PRE), gadodiamide (1 mM) was added to the NMR mixture. Where lipid vesicles were present in the NMR mixture, vesi cles were added at a concentration of 0.1 mg/mL.
All 1H CPMG NMR spectra were collected with a spin -lock time of 150 mS on a Bruker Avance III spectrometer equipped with a cold probe at a proton frequency of 600 MHz and recorded at 298 K.
Peak intensities were measured using MestReNova (Mestrelab Research). The MAF and PF were determined using previously published method. 3 For individual SSAs, MAF and PF were calculated using all aromatic CH resonances. For SSA co -formulations an average MAF and PF were calculated using all aromatic CH resonances. For individual components of the SSA co -formulations, the resonances for the different SSA anions were treated independently of one another.

[6] = polydispersity index of DLS dH, 2.78 mM
[7] = PE:PG 1:1 vesicles with DPH (10 μM)
[8] = PE:PG 3:1 vesicles with DPH (10 μM)

Structure (SMILES)	Peak 2 (nm) ([1]; 0.28 mM)	Peak 3 (nm) ([1]; 0.28 mM)	Peak 2 (nm) ([1]; 2.78 mM)	dH (nm) [1]	PDI ([1]; DLS, 0.28 mM)	PDI [1, 6]	Kdim [2]	dH (nm) of SSA anion, 1H NMR DOSY [3] [nm]	Peak 1 (nm) ([1]; 0.28 mM)	Peak 1 (nm) ([1]; 2.78 mM)	Average FP values [4, 7]	Average FP values [4, 8]	Average FP values ([4]; PG vesicles with DPH (10 μM))	MAF (membrane adhesion factor) [5]	PF (membrane permeation factor) [5]
O=C(O)CNC(=S)Nc1ccc(C(F)(F)F)cc1 [SSA 2]	139.08	–	142.73	142 nm and 143 nm	0.0160	0.0350	105 M⁻¹	1.42	–	–	−1 ± 1	−40 ± 0	11 ± 8	0.88	0.85
Cc1ccc2nc(-c3ccc(NC(=O)NCS(=O)(=O)O)cc3)sc2c1 [SSA 3]	56.01	462.06	672.27	672.27 nm and 672 nm	0.0863	0.0658	3 M⁻¹ and 2.7 M⁻¹	1.64	0.43	51.65	–	–	–	0.00	0.00

Further lines, with some results ahead:

Peak 2 (nm) ([1]; 0.28 mM)	Peak 3 (nm) ([1]; 0.28 mM)	Peak 2 (nm) ([1]; 2.78 mM)	dH (nm) [1]	PDI ([1]; DLS, 0.28 mM)	PDI [1, 6]	Kdim [2]	dH (nm) of SSA anion, 1H NMR DOSY [3] [nm]	Peak 1 (nm) ([1]; 0.28 mM)	Peak 1 (nm) ([1]; 2.78 mM)	Structure (SMILES)	Average FP values [4, 7]	Average FP values [4, 8]	Average FP values ([4]; PG vesicles with DPH (10 μM))	MAF (membrane adhesion factor) [5]	PF (membrane permeation factor) [5]
125.90	747.97	160.53	174 nm	0.0547	0.0614	7636 M⁻¹	1.61	–	–	O=C(O)CNc1c(Nc2ccc(C(F)(F)F)cc2)c(=O)c1=O [SSA 5]	146 ± 4	106 ± 7	152 ± 6	0.38	0.67
–	–	162.46	162.46 nm and 162 nm	0.0452	0.0388	–	1.65	–	–	O=c1c(NCCCS(=O)(=O)O)c(Nc2ccc(C(F)(F)F)cc2)c1=O [SSA 4]	151 ± 5	73 ± 14	150 ± 8	0.38	1.48 ^a
100.61	747.99	184.36	184.36 nm and 184 nm	0.0602	0.0315	3 M⁻¹ and 2.6 M⁻¹	1.50	0.23	–	O=S(=O)(O)CCCNC(=S)Nc1ccc(C(F)(F)F)cc1 [SSA 1]	50 ± 1	−9 ± 3	29 ± 1	0.94	1.01
